Measured values: ChEMBL document CHEMBL1201862, “PubChem BioAssay data set” (2004)
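Exposure lasted 48 hours, with cells grown in 96-well plates and compounds tested at five concentrations. GI50 marks 50% less growth.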 Calls of active or inactive are those of the source. Rule as the data show it: active = GI50 up to about 1.1 µM and inactive = higher.

Tests used:
Experiment in all cases: inhibition of tumour cell growth, NCI panel, 48 h
[1] = test system: KM-20L2
[2] = test system: LOX IMVI
[3] = test system: M19-MEL
[4] = test system: HCT-15
[5] = test system: COLO 205
[6] = test system: M14
[7] = test system: ACHN
[8] = test system: SK-OV-3
[9] = test system: SNB-19
[10] = test system: OVCAR-8
[11] = test system: NCI-H23
[12] = test system: CAKI-1
[13] = test system: A549
[14] = test system: RXF 631
[15] = test system: LXFL 529
[16] = test system: NCI-H226
[17] = test system: NCI-H460
[18] = test system: CCRF-CEM
[19] = test system: 786-0
[20] = test system: HOP-92
[21] = test system: SNB-75
[22] = test system: DMS-273
[23] = test system: Malme-3M
[24] = test system: SK-MEL-2
[25] = test system: SF-295
[26] = test system: HT-29
[27] = test system: SF-539
[28] = test system: UACC-257
[29] = test system: DLD-1
[30] = test system: HCC 2998
[31] = test system: SNB-78
[32] = test system: SF-268
[33] = test system: OVCAR-5
[34] = test system: XF498
[35] = test system: HOP-62
[36] = test system: DMS-114
[37] = test system: SN12C
[38] = test system: A498
[39] = test system: K562
[40] = test system: HL-60
[41] = test system: SR
[42] = test system: SK-MEL-28
[43] = test system: U-251
[44] = test system: HCT-116
[45] = test system: HOP-18
[46] = test system: TK-10
[47] = test system: EKVX
[48] = test system: UO-31
[49] = test system: UACC-62
[50] = test system: KM12
[51] = test system: IGROV-1
[52] = test system: MOLT-4
[53] = test system: SK-MEL-5
[54] = test system: OVCAR-3
[55] = test system: SW-620
[56] = test system: RXF 393
[57] = test system: RPMI-8226
[58] = test system: NCI-H522
[59] = test system: OVCAR-4

## c1ccc2c(c1)CCc1c(-c3n[nH]c4c3CCc3ccccc3-4)n[nH]c1-2
[1]
  GI50: > 100 µM (inactive)
[2]
  GI50: > 100 µM (inactive)
[3]
  GI50: > 100 µM (inactive)
[4]
  GI50: > 100 µM
[5]
  GI50: > 100 µM (inactive)
[6]
  GI50: > 100 µM (inactive)
[7]
  GI50: > 100 µM (inactive)
[8]
  GI50: > 100 µM (inactive)
[9]
  GI50: > 100 µM (inactive)
[10]
  GI50: > 100 µM (inactive)
[11]
  GI50: > 100 µM (inactive)
[12]
  GI50: > 100 µM (inactive)
[13]
  GI50: > 100 µM (inactive)
[14]
  GI50: > 100 µM (inactive)
[15]
  GI50: > 100 µM (inactive)
[16]
  GI50: > 100 µM (inactive)
[17]
  GI50: > 100 µM (inactive)
[18]
  GI50: > 100 µM (inactive)
[19]
  GI50: > 100 µM (inactive)
[20]
  GI50: > 100 µM (inactive)
[21]
  GI50: 56.5 µM (inactive)
[22]
  GI50: > 100 µM (inactive)
[23]
  GI50: > 100 µM (inactive)
[24]
  GI50: > 100 µM (inactive)
[25]
  GI50: > 100 µM (inactive)
[26]
  GI50: 76.7 µM (inactive)
[27]
  GI50: > 100 µM (inactive)
[28]
  GI50: > 100 µM (inactive)
[29]
  GI50: > 100 µM (inactive)
[30]
  GI50: > 100 µM (inactive)
[31]
  GI50: > 100 µM (inactive)
[32]
  GI50: > 100 µM (inactive)
[33]
  GI50: > 100 µM (inactive)
[34]
  GI50: > 100 µM (inactive)
[35]
  GI50: > 100 µM (inactive)
[36]
  GI50: > 100 µM (inactive)
[37]
  GI50: > 100 µM (inactive)
[38]
  GI50: > 100 µM (inactive)
[39]
  GI50: 27.9 µM (inactive)
[40]
  GI50: > 100 µM (inactive)
[41]
  GI50: 46.9 µM (inactive)
[42]
  GI50: > 100 µM (inactive)
[43]
  GI50: > 100 µM (inactive)
[44]
  GI50: > 100 µM (inactive)
[45]
  GI50: > 100 µM (inactive)
[46]
  GI50: > 100 µM (inactive)
[47]
  GI50: > 100 µM (inactive)
[48]
  GI50: > 100 µM (inactive)
[49]
  GI50: > 100 µM (inactive)
[50]
  GI50: > 100 µM (inactive)
[51]
  GI50: > 100 µM (inactive)
[52]
  GI50: 87.9 µM (inactive)
[53]
  GI50: > 100 µM (inactive)
[54]
  GI50: > 100 µM (inactive)
[55]
  GI50: > 100 µM (inactive)

## CC(C)C(=O)NS(=O)(=O)c1ccccc1
[1]
  GI50: > 100 µM (inactive)
[2]
  GI50: > 100 µM (inactive)
[3]
  GI50: > 100 µM (inactive)
[5]
  GI50: > 100 µM (inactive)
[6]
  GI50: > 100 µM (inactive)
[7]
  GI50: > 100 µM (inactive)
[8]
  GI50: > 100 µM (inactive)
[9]
  GI50: > 100 µM (inactive)
[10]
  GI50: > 100 µM (inactive)
[11]
  GI50: > 100 µM (inactive)
[12]
  GI50: > 100 µM (inactive)
[13]
  GI50: > 100 µM (inactive)
[14]
  GI50: > 100 µM (inactive)
[15]
  GI50: > 100 µM (inactive)
[16]
  GI50: > 100 µM (inactive)
[56]
  GI50: > 100 µM (inactive)
[17]
  GI50: > 100 µM (inactive)
[57]
  GI50: > 100 µM (inactive)
[18]
  GI50: > 100 µM (inactive)
[19]
  GI50: > 100 µM (inactive)
[20]
  GI50: > 100 µM (inactive)
[58]
  GI50: > 100 µM (inactive)
[21]
  GI50: > 100 µM (inactive)
[23]
  GI50: > 100 µM (inactive)
[24]
  GI50: > 100 µM (inactive)
[25]
  GI50: > 100 µM (inactive)
[26]
  GI50: > 100 µM (inactive)
[27]
  GI50: > 100 µM (inactive)
[28]
  GI50: > 100 µM (inactive)
[29]
  GI50: > 100 µM (inactive)
[30]
  GI50: > 100 µM (inactive)
[31]
  GI50: > 100 µM (inactive)
[32]
  GI50: > 100 µM (inactive)
[33]
  GI50: > 100 µM (inactive)
[34]
  GI50: > 100 µM (inactive)
[35]
  GI50: > 100 µM (inactive)
[36]
  GI50: > 100 µM (inactive)
[37]
  GI50: > 100 µM (inactive)
[38]
  GI50: > 100 µM (inactive)
[39]
  GI50: > 100 µM (inactive)
[40]
  GI50: > 100 µM (inactive)
[41]
  GI50: > 100 µM (inactive)
[42]
  GI50: > 100 µM (inactive)
[43]
  GI50: > 100 µM (inactive)
[44]
  GI50: > 100 µM (inactive)
[45]
  GI50: > 100 µM (inactive)
[46]
  GI50: > 100 µM (inactive)
[47]
  GI50: > 100 µM (inactive)
[48]
  GI50: > 100 µM (inactive)
[49]
  GI50: > 100 µM (inactive)
[50]
  GI50: > 100 µM (inactive)
[51]
  GI50: > 100 µM (inactive)
[59]
  GI50: > 100 µM (inactive)
[52]
  GI50: > 100 µM (inactive)
[54]
  GI50: > 100 µM (inactive)
[55]
  GI50: > 100 µM (inactive)

## COc1ccc2c3c(coc13)C(CCC(=O)O)CC2 (stereo not given)
[1]
  GI50: > 100 µM (inactive)
[2]
  GI50: > 100 µM (inactive)
[3]
  GI50: > 100 µM (inactive)
[4]
  GI50: > 100 µM
[5]
  GI50: > 100 µM (inactive)
[6]
  GI50: > 100 µM (inactive)
[7]
  GI50: > 100 µM (inactive)
[8]
  GI50: > 100 µM (inactive)
[9]
  GI50: > 100 µM (inactive)
[10]
  GI50: > 100 µM (inactive)
[11]
  GI50: > 100 µM (inactive)
[12]
  GI50: 38.7 µM (inactive)
[13]
  GI50: > 100 µM (inactive)
[14]
  GI50: > 100 µM (inactive)
[15]
  GI50: > 100 µM (inactive)
[56]
  GI50: > 100 µM (inactive)
[17]
  GI50: > 100 µM (inactive)
[19]
  GI50: > 100 µM (inactive)
[21]
  GI50: 56.6 µM (inactive)
[22]
  GI50: > 100 µM (inactive)
[25]
  GI50: > 100 µM (inactive)
[26]
  GI50: > 100 µM (inactive)
[27]
  GI50: > 100 µM (inactive)
[28]
  GI50: > 100 µM (inactive)
[29]
  GI50: > 100 µM (inactive)
[30]
  GI50: > 100 µM (inactive)
[31]
  GI50: > 100 µM (inactive)
[34]
  GI50: 48.3 µM (inactive)
[35]
  GI50: > 100 µM (inactive)
[36]
  GI50: > 100 µM (inactive)
[37]
  GI50: > 100 µM (inactive)
[38]
  GI50: > 100 µM (inactive)
[42]
  GI50: > 100 µM (inactive)
[43]
  GI50: > 100 µM (inactive)
[44]
  GI50: > 100 µM (inactive)
[45]
  GI50: 88.5 µM (inactive)
[46]
  GI50: > 100 µM (inactive)
[47]
  GI50: > 100 µM (inactive)
[49]
  GI50: > 100 µM (inactive)
[51]
  GI50: > 100 µM (inactive)
[59]
  GI50: > 100 µM (inactive)
[53]
  GI50: > 100 µM (inactive)
[54]
  GI50: > 100 µM (inactive)
[55]
  GI50: > 100 µM (inactive)

## CN(C)c1ccc(C(C=C2c3ccccc3Sc3ccccc32)=C(C#N)C#N)cc1
[1]
  GI50: 89.1 µM (inactive)
[2]
  GI50: 48.4 µM (inactive)
[3]
  GI50: > 100 µM (inactive)
[4]
  GI50: > 100 µM
[5]
  GI50: > 100 µM (inactive)
[6]
  GI50: 58.6 µM (inactive)
[7]
  GI50: 37.5 µM (inactive)
[8]
  GI50: > 100 µM (inactive)
[9]
  GI50: 83.4 µM (inactive)
[10]
  GI50: 94.8 µM (inactive)
[11]
  GI50: > 100 µM (inactive)
[12]
  GI50: 65.9 µM (inactive)
[13]
  GI50: > 100 µM (inactive)
[14]
  GI50: > 100 µM (inactive)
[15]
  GI50: 86.7 µM (inactive)
[56]
  GI50: 29 µM (inactive)
[17]
  GI50: 68.9 µM (inactive)
[57]
  GI50: > 100 µM (inactive)
[18]
  GI50: > 100 µM (inactive)
[19]
  GI50: 92.3 µM (inactive)
[21]
  GI50: 17.1 µM (inactive)
[22]
  GI50: 6.81 µM (inactive)
[23]
  GI50: > 100 µM (inactive)
[24]
  GI50: > 100 µM (inactive)
[25]
  GI50: 87.7 µM (inactive)
[26]
  GI50: > 100 µM (inactive)
[27]
  GI50: 77.3 µM (inactive)
[28]
  GI50: > 100 µM (inactive)
[29]
  GI50: > 100 µM (inactive)
[30]
  GI50: > 100 µM (inactive)
[31]
  GI50: 45.1 µM (inactive)
[32]
  GI50: > 100 µM (inactive)
[33]
  GI50: > 100 µM (inactive)
[34]
  GI50: 58.7 µM (inactive)
[35]
  GI50: 93.8 µM (inactive)
[36]
  GI50: 56.4 µM (inactive)
[37]
  GI50: > 100 µM (inactive)
[38]
  GI50: > 100 µM (inactive)
[39]
  GI50: 5.65 µM (inactive)
[40]
  GI50: > 100 µM (inactive)
[42]
  GI50: > 100 µM (inactive)
[43]
  GI50: 37.6 µM (inactive)
[44]
  GI50: > 100 µM (inactive)
[45]
  GI50: > 100 µM (inactive)
[46]
  GI50: > 100 µM (inactive)
[47]
  GI50: > 100 µM (inactive)
[48]
  GI50: 82.8 µM (inactive)
[49]
  GI50: 57.4 µM (inactive)
[50]
  GI50: > 100 µM (inactive)
[51]
  GI50: > 100 µM (inactive)
[59]
  GI50: 16 µM (inactive)
[52]
  GI50: > 100 µM (inactive)
[53]
  GI50: > 100 µM (inactive)
[54]
  GI50: 45.7 µM (inactive)
[55]
  GI50: > 100 µM (inactive)
